Assay [1] relates to ileum. Briefly: Magnus test: carbachol-induced contraction of isolated rat ileum. To be noted: test compound 10 μM, then carbachol 50 nM, 100% = carbachol 1000 nM, 0% = DMSO + carbachol 50 nM, average ± standard error, read-out: Enhancement ratio P of the contraction force. On the procedure:
9- to 15-week-aged SD female rats (Japan SLC, Inc.) were exsanguinated to death by amputation of carotid artery under isoflurane anesthesia. Then, the ileum was removed from each rat, and cut to a length of 2 cm while excising the mesentery and connective tissue, to prepare an intestinal sample. In a Magnus tank, this sample was immersed and suspended in 20 mL of a Krebs solution at 37° C. (118 mM NaCl, 4.7 mM KCl, 2.5 mM CaCl2, 1.2 mM MgSO4, 1.2 mM KH2PO4, 11 mM D-glucose, 20 mM NaHCO3) aerated with a mixed gas of 95% O2 and 5% CO2. Then, a load of 1 g was applied to the sample to stabilize the tension.
One end of the sample was connected to an isotonic transducer (IT-10, Medical Agent), and tension (contraction force) data was imported to a personal computer via Power Lab (registered trademark) (A&D Instruments Limited). Carbachol (Carbamylcholine Chloride, Cat. No. 036-09841, manufactured by FUJIFILM Wako Pure Chemical Industries, Ltd.) was added to the Krebs solution in the Magnus tank such that the final concentration thereof was 1000 nM, and contraction of the sample was checked. A contraction force Tb of the sample at this time was defined as 100%. Then, the Magnus tank was washed with a Krebs solution three times to wash away carbachol, and the Magnus tank was finally filled with 20 mL of a Krebs solution.
Next, dimethyl sulfoxide (DMSO, Cat. No. 13445-74, manufactured by NACALAI TESQUE, INC.) was added to the Krebs solution in the Magnus tank, then carbachol was added to the Krebs solution in the Magnus tank such that the final concentration thereof was 50 nM, and contraction of the sample was checked. A contraction force Ta of the sample at this time was defined as 0%. Then, the Magnus tank was washed with a Krebs solution three times to wash away carbachol and DMSO, and the Magnus tank was finally filled with 20 mL of a Krebs solution. Next, a test compound dissolved in DMSO was added to the Krebs solution in the Magnus tank such that the final concentration thereof was 10 μM, then carbachol was added to the Krebs solution in the Magnus tank such that the final concentration thereof was 50 nM, and contraction of the sample was checked.
As described above, the contraction force Tb of the sample when carbachol was added at a final concentration of 1000 nM was defined as 100%, and the contraction force Ta of the sample when carbachol was added at a final concentration of 50 nM under the condition that DMSO was added first instead of the test compound was defined as 0%. The contraction force of the sample when carbachol was added at a final concentration of 50 nM under the condition that the test compound was added first at a final concentration of 10 μM was denoted by Tc, and an enhancement ratio P (unit: %) of the contraction force by the test compound was calculated according to the following equation (2). The increase in contraction force by the test compound was evaluated on the basis of the enhancement ratio P. The number of cases in each addition group was 3 to 7.
P=100×(Tc−Ta)/(Tb−Ta) (2)

Assay [2] relates to anesthetized mice. In words: Measurement of secreted saliva amount in anesthetized mice. The assay is classed as in vivo, mouse. As to conditions: for Amount of saliva secreted: urethane-anesthetized male ICR mice, 10 mg/kg intravenous, cotton balls weighed after 30 minutes, average ± standard error. The method, then: 8-week-aged male ICR mice (Japan SLC, Inc.) were anesthetized with urethane (1650 mg/kg, intraperitoneal administration). After about 1 hour, a test compound or a vehicle (physiological saline containing 10% DMSO (OTSUKA NORMAL SALINE, manufactured by Otsuka Pharmaceutical Factory, Inc.)) was intravenously administered at 10 mg/kg, and immediately after that, one or two absorbent cotton wool balls ([…]) (Roller Cotton (cotton ball) SS, manufactured by Nichiei Co., Ltd.) were inserted into the mouth. The difference between the weight of the absorbent cotton balls after 30 minutes from insertion and the weight of the absorbent cotton balls before insertion was defined as an amount of saliva secreted. At this time, the test compound was dissolved in DMSO and then diluted 10-fold with physiological saline. The administration volumes of the test compound and the vehicle were each set to 5 mL/kg. The experiment was carried out in three parts. The number of cases in each administration group was 3-4.

This is an account of results in patent US20230000840A1, “THERAPEUTIC AGENTS AND PROPHYLACTIC AGENTS FOR FUNCTIONAL GASTROINTESTINAL DISORDERS AND XEROSTOMIA” (NIPPON SHINYAKU CO., LTD., priority 2019, published 2023).

With `COCC1(CN(C)c2cc(-c3cc(F)cc(C(F)(F)F)c3)nc3nc(-c4cnc(N5CCN(CC(=O)O)CC5)cn4)[nH]c23)CCC1` [Example 1, [4-(5-{5-[3-Fluoro-5-(trifluoromethyl)phenyl]-7-[{[1-(methoxymethyl)cyclobutyl]methyl}(methyl)amino]-1H-imidazo[4,5-b]pyridin-2-yl}pyrazin-2-yl)piperazin-1-yl]acetic acid], the activation at 10 µM in assay [1] turned out to be 30.4 ± 8.34%. Besides, the “Amount of saliva secreted” value in assay [2] is recorded as 9.63 ± 2.90 mg.

With `COCC1(CN(C)c2cc(-c3cc(F)cc(C(F)(F)F)c3)nc3nc(-c4cnc(N5CCC(F)(C(=O)O)CC5)cn4)[nH]c23)CCC1` [Example 2, 4-Fluoro-1-(5-{5-[3-fluoro-5-(trifluoromethyl)phenyl]-7-[{[1-(methoxymethyl)cyclobutyl]methyl}(methyl)amino]-1H-imidazo[4,5-b]pyridin-2-yl}pyrazin-2-yl)piperidine-4-carboxylic acid], the activation at 10 µM in assay [1] is 61.5 ± 8%. In assay [2], the “Amount of saliva secreted” value turned out to be 9.73 ± 3.61 mg.

On to `CCOc1ncc(-c2cc(N(C)CC3(COC)CCC3)c3[nH]c(-c4cnc(N5CCC(C(=O)O)CC5)cn4)nc3n2)cc1C(F)(F)F` [Example 3, 1-(5-{5-[6-Ethoxy-5-(trifluoromethyl)pyridin-3-yl]-7-[{[1-(methoxymethyl)cyclobutyl]methyl}(methyl)amino]-1H-imidazo[4,5-b]pyridin-2-yl}pyrazin-2-yl)piperidine-4-carboxylic acid], for which the activation at 10 µM in assay [1] was 57.3 ± 7.24%. The “Amount of saliva secreted” value in assay [2] is recorded as 27.23 ± 5.94 mg.

In the case of `CCOc1cc(-c2cc(N(C)CC3(COC)CCC3)c3[nH]c(-c4cnc(N5CCC(C(=O)O)CC5)cn4)nc3n2)cc(C(F)(F)F)n1.Cl.Cl` [Example 4, 1-(5-{5-[2-Ethoxy-6-(trifluoromethyl)pyridin-4-yl]-7-[{[1-(methoxymethyl)cyclobutyl]methyl}(methyl)amino]-1H-imidazo[4,5-b]pyridin-2-yl}pyrazin-2-yl)piperidine-4-carboxylic acid dihydrochloride], the activation at 10 µM in assay [1] amounted to 59.3 ± 7.17%. Also, in assay [2], the “Amount of saliva secreted” value was 77.35 ± 16.66 mg.

On to `COCC1(CN(C)c2cc(-c3cc(C4CC4)nc(C(F)(F)F)c3)nc3nc(-c4cnc(N5CCC(OCC(=O)O)CC5)cn4)[nH]c23)CCCC1` [Example 5, {[1-(5-{5-[2-Cyclopropyl-6-(trifluoromethyl)pyridin-4-yl]-7-[{[1-(methoxymethyl)cyclopentyl]methyl}(methyl)amino]-1H-imidazo[4,5-b]pyridin-2-yl}pyrazin-2-yl)piperidin-4-yl]oxy}acetic acid], for which, in assay [1], the activation at 10 µM worked out at 33.5 ± 3.39%. The “Amount of saliva secreted” value in assay [2] amounted to 66.30 ± 15.32 mg.

Regarding `CCOc1ncc(-c2cc(N(C)CC3(COC)CCCC3)c3[nH]c(-c4ccc(N5CCC(C(=O)O)CC5)cc4F)nc3n2)cc1C(F)(F)F` [Example 6, 1-(4-{5-[6-Ethoxy-5-(trifluoromethyl)pyridin-3-yl]-7-[{[1-(methoxymethyl)cyclopentyl]methyl}(methyl)amino]-1H-imidazo[4,5-b]pyridin-2-yl}-3-fluorophenyl)piperidine-4-carboxylic acid], the activation at 10 µM in assay [1] came out at 26.7 ± 5.04%. Also, the “Amount of saliva secreted” value in assay [2] was 11.37 ± 2.87 mg.

Turning to `CCOc1cc(-c2cc(N(C)CC(C)(C)COC)c3[nH]c(-c4cnc(N5CCC(C(=O)O)CC5)cn4)nc3n2)cc(C(F)(F)F)n1` [Example 7, 1-(5-{5-[2-Ethoxy-6-(trifluoromethyl)pyridin-4-yl]-7-[(3-methoxy-2,2-dimethylpropyl)(methyl)amino]-1H-imidazo[4,5-b]pyridin-2-yl}pyrazin-2-yl)piperidine-4-carboxylic acid], in assay [1], the activation at 10 µM turned out to be 25.8 ± 6.38%. Further, the “Amount of saliva secreted” value in assay [2] is given as 73.40 ± 28.54 mg.

Take `CCOCC1(CN(C)c2cc(-c3cnc(C4CC4)c(C(F)(F)F)c3)nc3nc(-c4cnc(N5CCC(C(=O)O)CC5)cn4)[nH]c23)CCCC1` [Example 8, 1-(5-{5-[6-Cyclopropyl-5-(trifluoromethyl)pyridin-3-yl]-7-[{[1-(ethoxymethyl)cyclopentyl]methyl}(methyl)amino]-1H-imidazo[4,5-b]pyridin-2-yl}pyrazin-2-yl)piperidine-4-carboxylic acid]: the activation at 10 µM in assay [1] came to 12.4 ± 5.31%. The “Amount of saliva secreted” value in assay [2] was 49.13 ± 11.95 mg.

Regarding `CCOc1cc(-c2cc(N(C)CC3(COC)CCCC3)c3[nH]c(-c4cnc(N5CCC(C(=O)O)CC5)cn4)nc3n2)cc(C(F)(F)F)n1` [Example 9, 1-(5-{5-[2-Ethoxy-6-(trifluoromethyl)pyridin-4-yl]-7-[{[1-(methoxymethyl)cyclopentyl]methyl}(methyl)amino]-1H-imidazo[4,5-b]pyridin-2-yl}pyrazin-2-yl)piperidine-4-carboxylic acid], in assay [1], the activation at 10 µM is 36.9 ± 6.43%. Also, the “Amount of saliva secreted” value in assay [2] is 34.73 ± 11.39 mg.

Regarding `COCC1(CN(C)c2cc(-c3cnc(C4CC4)c(C(F)(F)F)c3)nc3nc(-c4cnc(N5CCN(CCC(=O)O)CC5)cn4)[nH]c23)CCCCC1` [Example 10], in assay [1], the activation at 10 µM was determined as 19.3 ± 5.52%. In assay [2], the “Amount of saliva secreted” value was determined as 329.83 ± 49.36 mg.

Take `COCC1(CN(C)c2cc(-c3cnc(C4CC4)c(C(F)(F)F)c3)nc3nc(-c4ccc(OC5CCN(CC(=O)O)CC5)cc4F)[nH]c23)CCCC1` [Example 11, [4-(4-{5-[6-Cyclopropyl-5-(trifluoromethyl)pyridin-3-yl]-7-[{[1-(methoxymethyl)cyclopentyl]methyl}(methyl)amino]-1H-imidazo[4,5-b]pyridin-2-yl}-3-fluorophenoxy)piperidin-1-yl]acetic acid]: the activation at 10 µM in assay [1] stood at 30.1 ± 3.79%. Moreover, the “Amount of saliva secreted” value in assay [2] turned out to be 51.85 ± 7.37 mg.

In the case of `COC[C@@H]1CN(c2cnc(-c3nc4nc(-c5cnc(C6CC6)c(C(F)(F)F)c5)cc(N(C)CC5(COC)CCCCC5)c4[nH]3)cn2)CCN1CCC(=O)O` [Example 12, 3-[(2S)-4-(5-{5-[6-Cyclopropyl-5-(trifluoromethyl)pyridin-3-yl]-7-[{[1-(methoxymethyl)cyclohexyl]methyl}(methyl)amino]-1H-imidazo[4,5-b]pyridin-2-yl}pyrazin-2-yl)-2-(methoxymethyl)piperazin-1-yl]propanoic acid], the activation at 10 µM in assay [1] is 49.3 ± 11%. Besides, in assay [2], the “Amount of saliva secreted” value came out at 131.75 ± 28.63 mg.

As for `CCOCC1(CN(C)c2cc(-c3cnc(C4CC4)c(C(F)(F)F)c3)nc3nc(-c4cnc(N5CCN(CCC(=O)[O-])C[C@H]5C)cn4)[nH]c23)CCCC1.[Na+]` [Example 13, sodium 3-[(3R)-4-(5-{5-[6-cyclopropyl-5-(trifluoromethyl)pyridin-3-yl]-7-[{[1-(ethoxymethyl)cyclopentyl]methyl}(methyl)amino]-1H-imidazo [4,5-b]pyridin-2-yl}pyrazin-2-yl)-3-methylpiperazin-1-yl]propanoate], in assay [1], the activation at 10 µM was determined as 17.7 ± 12.7%. In addition, the “Amount of saliva secreted” value in assay [2] worked out at 214.40 ± 51.06 mg.

Regarding `CC[C@@H]1C(=O)OC[C@@H]1Cc1cncn1C` [pilocarpine, reference compound], the Salivation promoting effect result in assay [2] (urethane-anesthetized mice, dose not given) is recorded as “exhibited a salivation promoting effect”.
